Assay results from patent US20110028479A1, “SUBSTITUTED PYRROLOTRIAZINES AND THEIR USE” (BAYER SCHERING PHARMA AKTIENGESELLSCHAFT, priority 2007, published 2011).

Biological target: T1, Prostacyclin Receptors (IP Receptors) of Human Thrombocyte Membranes (Homo sapiens, UniProt P43119)
T1 construct: Thrombocyte membranes are obtained by centrifuging 50 ml of human blood; tissue Maco Pharma, Langen (buffy coats); host or cells: human thrombocyte (platelet) membranes prepared from human blood
Assay: Binding to prostacyclin receptors (IP receptors) of human thrombocyte membranes, 3H-Iloprost displacement
Conditions: 3 nM 3H-Iloprost, 60 min, room temperature
Procedure: B-1. Studies of Binding to Prostacyclin Receptors (IP Receptors) of Human Thrombocyte Membranes
Thrombocyte membranes are obtained by centrifuging 50 ml of human blood (Buffy coats with CDP Stabilizer, from Maco Pharma, Langen) for 20 min at 160×g. Remove the supernatant (platelet-rich plasma, PRP) and then centrifuge again at 2000×g for 10 min at room temperature. Resuspend the sediment in 50 mM tris(hydroxymethyl)aminomethane, which has been adjusted to a pH of 7.4 with 1 N hydrochloric acid, and store at −20° C. overnight. On the next day, centrifuge the suspension at 80 000×g and 4° C. for 30 min. Discard the supernatant. […]
For the binding test, incubate 3 nM ^3H-Iloprost (592 GBq/mmol, from AmershamBioscience) for 60 min with 300-1000 μg/ml of human thrombocyte membranes per charge (max. 0.2 ml) in the presence of the test substances at room temperature. […] After adding Ultima Gold Scintillator, quantify the radioactivity bound to the membranes using a scintillation counter. The nonspecific binding is defined as radioactivity in the presence of 1 μM Iloprost (from Cayman Chemical, Ann Arbor) and is as a rule <25% of the bound total radioactivity. The binding data (IC50 values) are determined using the program GraphPad Prism Version 3.02.

T1 sequence (P43119 whole entry): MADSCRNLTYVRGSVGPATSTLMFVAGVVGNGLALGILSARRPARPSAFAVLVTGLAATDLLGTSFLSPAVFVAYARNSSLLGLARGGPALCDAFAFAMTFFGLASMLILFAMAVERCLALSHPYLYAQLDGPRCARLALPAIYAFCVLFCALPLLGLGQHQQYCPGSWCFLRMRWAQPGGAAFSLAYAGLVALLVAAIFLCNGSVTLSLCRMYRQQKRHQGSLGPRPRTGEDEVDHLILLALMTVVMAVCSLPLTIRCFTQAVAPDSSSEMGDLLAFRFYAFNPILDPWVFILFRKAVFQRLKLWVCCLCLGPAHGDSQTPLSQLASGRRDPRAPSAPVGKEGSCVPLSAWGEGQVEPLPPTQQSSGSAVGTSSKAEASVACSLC

SMILES	IC50 [nM]
COc1ccc(-c2c(-c3ccccc3)cn3ncnc(NCCCCCC(=O)O)c23)cc1 [Example 3]	636
COc1ccc(-c2c(-c3ccccc3)cn3ncnc(O[C@H](C)CCCCC(=O)O)c23)cc1 [Example 4, (6R)-6-{[5-(4-methoxyphenyl)-6-phenylpyrrolo[2,1-f][1,2,4]triazin-4-yl]oxy}heptanoic acid]	224
